Experimental data taken from article PMC10897015, “Investigation of anti-nociceptive, anti-inflammatory potential and ADMET studies of pure compounds isolated from Isodon rugosus Wall. ex Benth” (Frontiers in Pharmacology, 2024).
Several values for one entry are separate records, joined by “and”; a condition that tells them apart may be missing. Equal values may be shown once. Marks after values point to notes of the source that are not given here.

Key:
mice = test: Carrageenan-induced paw edema; format: in vivo; details: for % edema volume inhibition (mean): aspirin 10 mg/kg; for Paw edema percent inhibition, individual values / Paw edema, individual values: single animals
Protocol: The animals under study were divided into different groups. Prior to the experiment, the animals had only access to water. […] Additionally, the isolated compounds being tested were given 30 min before injecting 0.05 ml of 1% carrageenan into the sub-plantar region of the paw. To measure the volume changes in the paw, a digital plethysmometer was employed. Readings were taken before and after the carrageenan injection at hourly intervals over a total period of 5 h.

Swiss albino mice [1] = test: Acetic acid-induced writhing test; format: in vivo; details: for Writhes, individual values: single animals, listed as Comp 1; for % analgesic activity (writhing inhibition) / Mean writhes: oral
Protocol: An anti-nociceptive assessment was performed on Swiss albino mice of both sexes, sourced from the National Institute of Health, Islamabad, Pakistan. […] Mice of either sex were divided into different groups, with five mice in each group. The test samples were carefully administered orally, with doses of 250, 500, 1000, and 2000 mg/kg.
I. rugosus was evaluated for its analgesic potential through an acetic acid-induced writhing test. Oral administration of the test samples was carried out using specified doses. After 30 min of interval, 10 ml/kg of acetic acid (0.6%) was injected into the mice. Group I served as the control and received 0.5% Tween-80 (3 ml/kg), group II received diclofenac sodium (10 mg/kg), and groups III and IV received test compounds. The count of writhes was recorded between 5 and 30 min, following the i/p injection of acetic acid ([Franzotti et al., 2000]).

Swiss albino mice [2] = test: Hot plate test with opioid receptor involvement; format: in vivo; details: for Reaction time on hot plate, individual values: single animals; for Reaction time on the hot plate: compounds 50 mg/kg, Mor 5 mg/kg, Nal 1 mg/kg
Swiss albino mice [3] = test: Formalin test with opioid receptor involvement; format: in vivo; details: for formalin induced pain, licking time, individual values: single animals
Protocol: An anti-nociceptive assessment was performed on Swiss albino mice of both sexes, sourced from the National Institute of Health, Islamabad, Pakistan. […] Mice of either sex were divided into different groups, with five mice in each group. […]
The analgesic activity of I. rugosus was assessed through a formalin-induced licking test. The test samples were administered orally at specified doses.

COX-2 = target: T1, COX-2 (Homo sapiens, UniProt P35354); test: Cyclooxygenase-2 inhibitory activity; format: biochemical; details: for Percent Inhibition (COX-2), single replicates: replicates 1-3
T1 sequence (P35354 18-604): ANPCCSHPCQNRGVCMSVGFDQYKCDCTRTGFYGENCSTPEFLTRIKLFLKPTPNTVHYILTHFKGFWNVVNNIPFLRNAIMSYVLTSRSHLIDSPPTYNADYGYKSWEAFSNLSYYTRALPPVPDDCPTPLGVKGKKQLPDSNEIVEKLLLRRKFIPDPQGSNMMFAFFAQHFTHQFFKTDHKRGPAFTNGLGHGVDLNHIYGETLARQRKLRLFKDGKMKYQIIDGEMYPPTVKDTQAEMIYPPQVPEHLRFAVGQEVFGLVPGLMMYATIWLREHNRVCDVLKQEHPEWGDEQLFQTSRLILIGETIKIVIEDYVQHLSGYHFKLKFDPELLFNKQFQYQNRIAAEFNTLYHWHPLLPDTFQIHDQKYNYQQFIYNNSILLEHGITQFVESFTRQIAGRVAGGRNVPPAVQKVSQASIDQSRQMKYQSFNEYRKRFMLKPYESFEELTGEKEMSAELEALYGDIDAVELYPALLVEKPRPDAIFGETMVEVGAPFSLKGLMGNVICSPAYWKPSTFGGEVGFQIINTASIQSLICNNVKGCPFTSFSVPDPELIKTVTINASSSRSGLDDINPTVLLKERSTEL
Protocol: An enzyme solution with a concentration of 300 U/ml was prepared and activated using ice for 5 min with a 50 µL cofactor solution containing glutathione (0.9 mM), TMPD (N,N,N,N_tetramethyl-p-phenylenediaminedihydrochloride) (0.24 mM), and hematin (1 mM) in Tris buffer (0.1 M) with pH 8. The enzyme solution (60 µL) and test samples (20 µL) with various concentrations were incubated at room temperature for 5 minutes. Celecoxib was used as a positive control in the current assay. The absorbance of the samples was measured at 570 nm after the samples had been incubated for 5 min. Arachidonic acid (30 mM, 20 µL) was added to initiate the reaction. The percent inhibition was calculated from the absorbance value per unit time.

[4] = first phase, compounds 50 mg/kg, Mor 5 mg/kg, Nal 1 mg/kg
[5] = second phase, compounds 50 mg/kg, Mor 5 mg/kg, Nal 1 mg/kg

O=C(O)C=Cc1ccc(O)c(O)c1 [Compound 1, 3,4-dihydroxy-cinnamic acid]
% edema volume inhibition (mean) (mice; 1st hour after carrageenan): 48.042%
% edema volume inhibition (mean) (mice; 2nd hour after carrageenan): 54.02%
% edema volume inhibition (mean) (mice; 3rd hour after carrageenan): 54.008%
% edema volume inhibition (mean) (mice; 4th hour after carrageenan): 56.40 ± 0.42%
% edema volume inhibition (mean) (mice; 4th hour after carrageenan, listed as Comp 1): 56.094%
% edema volume inhibition (mean) (mice; 5th hour after carrageenan): 53.076%
paw edema inhibition (mice; at various intervals): > 50%
Paw edema percent inhibition, individual values (mice; hour 1, listed as Comp 1): 50.39% and 48.96% and 47.65% and 47.13% and 46.08%
Paw edema, individual values (mice; hour 1, listed as Comp 1): 0.38 and 0.391 and 0.401 and 0.405 and 0.413
Paw edema percent inhibition, individual values (mice; hour 2, listed as Comp 1): 53.99% and 52.64% and 55.48% and 52.1% and 55.89%
Paw edema, individual values (mice; hour 2, listed as Comp 1): 0.34 and 0.35 and 0.329 and 0.354 and 0.326
Paw edema percent inhibition, individual values (mice; hour 3, listed as Comp 1): 54.46% and 55.39% and 53.53% and 52.73% and 53.93%
Paw edema, individual values (mice; hour 3, listed as Comp 1): 0.342 and 0.335 and 0.349 and 0.355 and 0.346
Paw edema percent inhibition, individual values (mice; hour 4, listed as Comp 1): 56.75% and 58.72% and 56.09% and 54.78% and 54.13%
Paw edema, individual values (mice; hour 4, listed as Comp 1): 0.33 and 0.315 and 0.335 and 0.345 and 0.35
Paw edema percent inhibition, individual values (mice; hour 5, listed as Comp 1): 54.17% and 56.22% and 50.75% and 53.76% and 50.48%
Paw edema, individual values (mice; hour 5, listed as Comp 1): 0.335 and 0.32 and 0.36 and 0.338 and 0.362
Writhes, individual values (Swiss albino mice [1]; 10mg): 60 and 58.9 and 55.1
Writhes, individual values (Swiss albino mice [1]; 20mg): 50.1 and 48.2 and 49.71
Writhes, individual values (Swiss albino mice [1]; 25mg): 45.64 and 46.56 and 47.8
Writhes, individual values (Swiss albino mice [1]; 50mg): 22.1 and 23.29 and 24.51
% analgesic activity (writhing inhibition) (Swiss albino mice [1]; dose 10 mg/kg): 05.10% and 05.10^ns %
% analgesic activity (writhing inhibition) (Swiss albino mice [1]; dose 20 mg/kg): 19.88% and 19.88^ns %
Mean writhes (Swiss albino mice [1]; dose 20 mg/kg): 49.33 ± 0.87
Mean writhes (Swiss albino mice [1]; dose 20 mg/kg, listed as Comp 1, 20 mg/kg): 49.3367
% analgesic activity (writhing inhibition) (Swiss albino mice [1]; dose 25 mg/kg): 24.78%
Mean writhes (Swiss albino mice [1]; dose 25 mg/kg): 46.67 ± 0.87
Mean writhes (Swiss albino mice [1]; dose 25 mg/kg, listed as Comp 1, 25 mg/kg): 46.6667
% analgesic activity (writhing inhibition) (Swiss albino mice [1]; dose 50 mg/kg): 62% and 61.90%
Mean writhes (Swiss albino mice [1]; dose 50 mg/kg): 23.30 ± 0.62
Mean writhes (Swiss albino mice [1]; dose 50 mg/kg, listed as Comp 1, 50 mg/kg): 23.3
Reaction time on hot plate, individual values (Swiss albino mice [2]; at 15, listed as Comp-1): 8.02 and 7.34 and 9.3
Reaction time on hot plate, individual values (Swiss albino mice [2]; at 30, listed as Comp-1): 7.19 and 7.2 and 7.18
Reaction time on hot plate, individual values (Swiss albino mice [2]; at 45, listed as Comp-1): 6.4 and 7.3 and 6.26
Reaction time on hot plate, individual values (Swiss albino mice [2]; at 60, listed as Comp-1): 8.1 and 9.57 and 7.46
Reaction time on hot plate, individual values (Swiss albino mice [2]; at 90, listed as Comp-1): 6.12 and 7.38 and 8.02
Reaction time on the hot plate (Swiss albino mice [2]; at 15 min): 08.22 ± 0.07 s
Reaction time on the hot plate (Swiss albino mice [2]; at 15 min, listed as Comp-1): 8.22 s
Reaction time on the hot plate (Swiss albino mice [2]; at 15 min, listed as compound 1): 08.22 ± 0.07 s
Reaction time on the hot plate (Swiss albino mice [2]; at 30 min): 07.19 ± 0.08 s
Reaction time on the hot plate (Swiss albino mice [2]; at 30 min, listed as Comp-1): 7.19 s
Reaction time on the hot plate (Swiss albino mice [2]; at 30 min, listed as compound 1): 07.19 ± 0.08 s
Reaction time on the hot plate (Swiss albino mice [2]; at 45 min): 6.65 ± 0.05 s
Reaction time on the hot plate (Swiss albino mice [2]; at 45 min, listed as Comp-1): 6.653 s
Reaction time on the hot plate (Swiss albino mice [2]; at 45 min, listed as compound 1): 6.65 ± 0.05 s
Reaction time on the hot plate (Swiss albino mice [2]; at 60 min): 8.38 ± 0.41 s
Reaction time on the hot plate (Swiss albino mice [2]; at 60 min, listed as Comp-1): 8.377 s
Reaction time on the hot plate (Swiss albino mice [2]; at 60 min, listed as compound 1): 8.38 ± 0.41 s
Reaction time on the hot plate (Swiss albino mice [2]; at 90 min): 7.17 ± 0.57 s
Reaction time on the hot plate (Swiss albino mice [2]; at 90 min, listed as Comp-1): 7.173 s
Reaction time on the hot plate (Swiss albino mice [2]; at 90 min, listed as compound 1): 7.17 ± 0.57 s
formalin induced pain, licking time, individual values (Swiss albino mice [3]; 0-5 minutes, listed as Comp 1): 16.3 and 17.41 and 18.2
formalin induced pain, licking time, individual values (Swiss albino mice [3]; 15-30 minutes, listed as Comp 1): 27.57 and 28.5 and 29.36
Total time spent in licking 0–5 min (Swiss albino mice [3]; [4]): 17.30 ± 0.77 s
Total time spent in licking, % inhibition (0–5 min) (Swiss albino mice [3]; [4]): 69.45%
Total time spent in licking 0–5 min (Swiss albino mice [3]; first phase, compounds 50 mg/kg, Mor 5 mg/kg, Nal 1 mg/kg, listed as Comp 1): 17.3033 s
Total time spent in licking 15–30 min (Swiss albino mice [3]; [5]): 28.48 ± 0.58 s
Total time spent in licking, % inhibition (15–30 min) (Swiss albino mice [3]; [5]): 63.97^*** %
Total time spent in licking 15–30 min (Swiss albino mice [3]; second phase, compounds 50 mg/kg, Mor 5 mg/kg, Nal 1 mg/kg, listed as Comp 1): 28.4767 s
% inhibition, COX-2 (mean ± SEM) (COX-2; 62.5 µg/ml, listed as Comp 1): 51.9833%
inhibition at 62.5 µg/mL (COX-2; 62.5 µg/ml, read-out: % inhibition, COX-2 (mean ± SEM)): 51.6 ± 1.2%
% inhibition, COX-2 (mean ± SEM) (COX-2; 250 µg/ml, listed as Comp 1): 62.5167%
inhibition at 250 µg/mL (COX-2; 250 µg/ml, read-out: % inhibition, COX-2 (mean ± SEM)): 62.5 ± 0.84%
% inhibition, COX-2 (mean ± SEM) (COX-2; 500 µg/ml, listed as Comp 1): 68.4433%
inhibition at 500 µg/mL (COX-2; 500 µg/ml, read-out: % inhibition, COX-2 (mean ± SEM)): 68.42 ± 0.64%
% inhibition, COX-2 (mean ± SEM) (COX-2; 1000 µg/ml): 72.63 ± 0.57 %
inhibition at 1000 µg/mL (COX-2; 1000 µg/ml, read-out: % inhibition, COX-2 (mean ± SEM)): 72.8%
Percent Inhibition (COX-2), single replicates (COX-2; 62.5, listed as Comp 1): 51.85% and 51.98% and 52.12%
Percent Inhibition (COX-2), single replicates (COX-2; 125, listed as Comp 1): 58.82% and 58.96% and 58.41%
Percent Inhibition (COX-2), single replicates (COX-2; 250, listed as Comp 1): 62.79% and 63.2% and 61.56%
Percent Inhibition (COX-2), single replicates (COX-2; 500, listed as Comp 1): 68.4% and 67.99% and 68.94%
Percent Inhibition (COX-2), single replicates (COX-2; 1000, listed as Comp 1): 72.37% and 73.56% and 71.96%
